Experimental data published in ChEMBL document CHEMBL1201862, “PubChem BioAssay data set” (2004).
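These data come from cells grown in 96-well plates and exposed to compound for 48 hours at five concentrations. GI50 marks 50% less growth.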 The source made the active and inactive calls. Rule as the data show it: active = GI50 up to about 1.1 µM and inactive = higher.

Tests used:
Experiment in all cases: NCI-60 cell line screen, 48 h
[1] = test system: SNB-78
[2] = test system: DMS-114
[3] = test system: SF-268
[4] = test system: ACHN
[5] = test system: DLD-1
[6] = test system: EKVX
[7] = test system: SF-539
[8] = test system: NCI-H522
[9] = test system: KM12
[10] = test system: OVCAR-4
[11] = test system: A549
[12] = test system: HL-60
[13] = test system: Malme-3M
[14] = test system: SK-MEL-28
[15] = test system: SNB-75
[16] = test system: K562
[17] = test system: HOP-62
[18] = test system: U-251
[19] = test system: SK-MEL-2
[20] = test system: SN12C
[21] = test system: UACC-62
[22] = test system: OVCAR-8
[23] = test system: CCRF-CEM
[24] = test system: SW-620
[25] = test system: COLO 205
[26] = test system: HT-29
[27] = test system: LXFL 529
[28] = test system: TK-10
[29] = test system: NCI-H460
[30] = test system: IGROV-1
[31] = test system: HOP-92
[32] = test system: HCT-15
[33] = test system: SR
[34] = test system: 786-0
[35] = test system: SF-295
[36] = test system: CAKI-1
[37] = test system: SNB-19
[38] = test system: MOLT-4
[39] = test system: M19-MEL
[40] = test system: NCI-H23
[41] = test system: RPMI-8226
[42] = test system: SK-MEL-5
[43] = test system: SK-OV-3
[44] = test system: OVCAR-5
[45] = test system: HCT-116
[46] = test system: NCI-H226
[47] = test system: LOX IMVI
[48] = test system: M14
[49] = test system: OVCAR-3
[50] = test system: RXF 393

O=C(NCCCCCCNC(=O)NC1OCC(O)C(O)C1O)NC1OCC(O)C(O)C1O (stereo not given)
GI50 [1]: > 100 µM (inactive)
GI50 [2]: > 100 µM (inactive)
GI50 [3]: > 100 µM (inactive)
GI50 [4]: > 100 µM (inactive)
GI50 [5]: > 100 µM (inactive)
GI50 [6]: > 100 µM (inactive)
GI50 [7]: > 100 µM (inactive)
GI50 [8]: > 100 µM (inactive)
GI50 [9]: > 100 µM (inactive)
GI50 [10]: > 100 µM (inactive)
GI50 [11]: > 100 µM (inactive)
GI50 [12]: > 100 µM (inactive)
GI50 [13]: > 100 µM (inactive)
GI50 [14]: > 100 µM (inactive)
GI50 [15]: 64.9 µM (inactive)
GI50 [16]: > 100 µM (inactive)
GI50 [17]: > 100 µM (inactive)
GI50 [18]: > 100 µM (inactive)
GI50 [19]: > 100 µM (inactive)
GI50 [20]: > 100 µM (inactive)
GI50 [21]: > 100 µM (inactive)
GI50 [22]: > 100 µM (inactive)
GI50 [23]: > 100 µM (inactive)
GI50 [24]: > 100 µM (inactive)
GI50 [25]: > 100 µM (inactive)
GI50 [26]: > 100 µM (inactive)
GI50 [27]: > 100 µM (inactive)
GI50 [28]: > 100 µM (inactive)
GI50 [29]: > 100 µM (inactive)
GI50 [30]: > 100 µM (inactive)
GI50 [31]: > 100 µM (inactive)
GI50 [32]: > 100 µM
GI50 [33]: > 100 µM (inactive)
GI50 [34]: > 100 µM (inactive)
GI50 [35]: > 100 µM (inactive)
GI50 [36]: > 100 µM (inactive)
GI50 [37]: < 0.01 µM (active)
GI50 [38]: > 100 µM (inactive)
GI50 [39]: > 100 µM (inactive)
GI50 [40]: > 100 µM (inactive)
GI50 [41]: > 100 µM (inactive)
GI50 [42]: > 100 µM (inactive)
GI50 [43]: > 100 µM (inactive)
GI50 [44]: > 100 µM (inactive)
GI50 [45]: > 100 µM (inactive)
GI50 [46]: > 100 µM (inactive)
GI50 [47]: > 100 µM (inactive)
GI50 [48]: > 100 µM (inactive)
GI50 [49]: > 100 µM (inactive)
GI50 [50]: > 100 µM (inactive)
